The test addresses T1, 15-lipoxygenase (Homo sapiens, UniProt P16050).
T1 sequence (P16050 1-662): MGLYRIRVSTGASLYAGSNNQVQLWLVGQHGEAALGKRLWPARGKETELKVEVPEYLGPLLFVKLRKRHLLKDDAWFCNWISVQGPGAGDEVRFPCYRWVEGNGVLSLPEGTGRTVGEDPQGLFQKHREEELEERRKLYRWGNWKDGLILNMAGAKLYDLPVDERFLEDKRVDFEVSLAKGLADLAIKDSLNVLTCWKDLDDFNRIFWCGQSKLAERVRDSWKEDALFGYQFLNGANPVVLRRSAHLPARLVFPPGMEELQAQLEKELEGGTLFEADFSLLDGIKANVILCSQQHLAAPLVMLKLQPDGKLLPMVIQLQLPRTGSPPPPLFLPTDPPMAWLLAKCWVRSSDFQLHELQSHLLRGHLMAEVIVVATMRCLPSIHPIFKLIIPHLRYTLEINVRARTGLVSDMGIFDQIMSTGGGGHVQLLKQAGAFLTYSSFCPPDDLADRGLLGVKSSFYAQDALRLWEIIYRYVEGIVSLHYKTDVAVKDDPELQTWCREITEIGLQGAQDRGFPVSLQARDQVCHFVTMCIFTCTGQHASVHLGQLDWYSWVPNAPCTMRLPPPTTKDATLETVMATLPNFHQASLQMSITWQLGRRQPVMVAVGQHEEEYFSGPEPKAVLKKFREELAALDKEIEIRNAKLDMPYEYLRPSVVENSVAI
The test is described as follows: 15-lipoxygenase inhibition, DPPP fluorescence assay with linoleic acid. The class given is biochemical. The conditions noted are these: biological test method; test concentration not given. On the procedure: The assay employed takes advantage of the ability of lipid hydroperoxides to oxidize the non-fluorescent diphenyl-1-pyrenylphosphine (DPPP) to its corresponding fluorescent phosphine oxide. Fluorescence is measured using a dual-scanning microplate spectrofluorometer, Spectramax Gemini, from Molecular Devices. DPPP was purchased from Molecular Probes. Linoleic acid was from Biomol and PBS (phosphate buffered saline) from Gibco Life Technologies. The assay is performed in 96-well plates at room temperature (20-22° C.). The following are added (in the following order) to each well:
a) 35 μl of Dulbecco's phosphate buffered saline (PBS);
b) inhibitor (i.e. compound) or vehicle (0.5 μl DMSO);
c) 10 μL of a 5× concentrated 15-lipoxygenase solution in PBS. The plates are incubated for 5 minutes at room temperature;
d) 5 μl of 2 mM linoleic acid in PBS. The plate is then incubated for 20 minutes at room temperature;
e) the enzymatic reaction is terminated by the addition of 50 μl methanol; and
f) 50 μl of 200 μM DPPP in methanol is added to each well.
After 30 minutes at room temperature, the fluorescence can be read using an excitation wavelength of 358 nm and an emission wavelength of 379 nm.

As for `CCOc1ccccc1C(=O)n1ccc(C(=O)Nc2cc(C)no2)n1` [Example 14, 1-(2-Ethoxybenzoyl)-1H-pyrazole-3-carboxylic acid (3-methylisoxazol-5-yl)amide], the “inhibition of 15-lipoxygenase” value is given as 39%.

Regarding `CCCCCc1ccc(C(=O)n2ccc(C(=O)Nc3ccc(N(C)C)cc3)n2)cc1` [Example 23, 1-(4-Pentylbenzoyl)-1H-pyrazole-3-carboxylic acid (4-dimethylaminophenyl)amide], the “inhibition of 15-lipoxygenase” value came out at 44%.

For the molecule `O=C(Nc1cccnc1)c1ccn(C(=O)c2ccccc2)n1` [Example 1, 1-Benzoyl-1H-pyrazole-3-carboxylic acid pyridin-3-ylamide], the “inhibition of 15-lipoxygenase” value is 45%.

For the molecule `CCOc1ccccc1C(=O)n1ccc(C(=O)Nc2cc(Cl)ccc2C#N)n1` [Example 26, 1-(2-Ethoxybenzoyl)-1H-pyrazole-3-carboxylic acid (5-chloro-2-cyanophenyl)amide], the “inhibition of 15-lipoxygenase” value is reported as 45%.

For `COC(=O)c1ccsc1NC(=O)c1ccn(C(=O)c2cc(F)ccc2C)n1` [Example 8, 2-{[1-(5-Fluoro-2-methylbenzoyl)-1H-pyrazole-3-carbonyl]amino}-thiophene-3-carboxylic acid methyl ester], the “inhibition of 15-lipoxygenase” value was determined as 50%.

The record behind these values is US20060183780A1, “Pyrazole compounds useful in the treatment of inflammation” (priority 2003, published 2006).
